Measurements from patent US8551507B2, “Terpene glycosides and their combinations as solubilizing agents” (Board of Supervisors of Louisiana State University And …, priority 2009, dated 2013).
In brackets after ≈: the same amount, converted by molar mass. Read-outs that look alike come from different tables or passages of the source.

Assays:
[1] = 72 h
physchem [2] = conditions: 25 °C, water, thermodynamic from solid
[3] = Merck Index, Material Safety Data Sheets or general statement, cited from earlier work
[4] = Solubility test: low-solubility compound in water or in water solutions containing 10% w/v natural solubilizer, quantified by HPLC/LC-MS; conditions: 25° C. 72 hr; for Concentration in water solution With Geniposide: 10% w/v geniposide in water; for Concentration in water solution With Mogroside V: 10% w/v mogroside V in water; for Concentration in water solution With Paeoniflorin: 10% w/v paeoniflorin in water; for Concentration in water solution With Rebaudioside A: 10% w/v rebaudioside A in water; for Concentration in water solution With Rubusoside: 10% w/v rubusoside in water
[5] = Safety of daily consumption of steviol glycosides (estimates based on aglycone steviol); assay type: in vivo
physchem [6] = conditions: water
[7] = in vivo; cited from earlier work
hypertensive rats = conditions: intraperitoneal, 50 mg/kg and 100 mg/kg body weight, hypertensive rats (Hsu et al. 2002); cited from earlier work
[8] = cyclodextrins, comparison; cited from earlier work

Row | SMILES | Concentration in water solution With Astragaloside [1] | Concentration in water solution With Geniposide [1] | Concentration in water solution With Mogroside V [1] | Concentration in water solution With Paeoniflorin [1] | Concentration in water solution With Rubusoside [1] | Water solubility in words [3] | other results
1 | CC[C@@]1(O)C(=O)OCc2c1cc1n(c2=O)Cc2cc3ccccc3nc2-1 [Camptothecin, camptothecin] | – | – | – | – | – | poor solubility in water | Water solubility in words ([3]; listed as camptothecin): insoluble; Concentration in water solution With Geniposide [4]: 25000 ng/mL; Concentration in water solution With Mogroside V [4]: 18000 ng/mL; Concentration in water solution With Paeoniflorin [4]: 53000 ng/mL; Concentration in water solution With Paeoniflorin ([4]; listed as camptothecin): 54000 ng/mL; Concentration in water solution With Rebaudioside A [4]: 48000 ng/mL; Concentration in water solution With Rubusoside [4]: 61000 ng/mL
2 | COC1=C(OC)C(=O)C(C/C=C(\C)CC/C=C(\C)CC/C=C(\C)CC/C=C(\C)CC/C=C(\C)CC/C=C(\C)CC/C=C(\C)CC/C=C(\C)CC/C=C(\C)CCC=C(C)C)=C(C)C1=O [Coenzyme Q10, coenzyme Q10] | – | – | – | – | 111000 ng/mL | insolubility in water | –
3 | C[C@H]1O[C@@H](O[C@H]2[C@@H](O)C[C@H](O[C@H]3[C@@H](O)C[C@H](O[C@H]4CC[C@@]5(C)[C@H](CC[C@@H]6[C@@H]5C[C@@H](O)[C@]5(C)[C@@H](C7=CC(=O)OC7)CC[C@]65O)C4)O[C@@H]3C)O[C@@H]2C)C[C@H](O)[C@@H]1O [Digoxin, digoxin] | – | – | – | – | – | – | solubility (physchem [2]): 19 µg/mL (≈ 0.0243 mM)
4 | CO[C@H]1C[C@H](O[C@H]2CC[C@@]3(C)[C@H](CC[C@@H]4[C@@H]3CC[C@]3(C)[C@@H](C5=CC(=O)OC5)[C@@H](OC(C)=O)C[C@]43O)C2)O[C@@H](C)[C@@H]1O [Oleandrin, oleandrin] | – | – | – | – | – | practically insoluble in water | solubility (physchem [2]): 3 µg/mL (≈ 0.0052 mM); Concentration in water solution With Geniposide [4]: 28000 ng/mL; Concentration in water solution With Mogroside V [4]: 47000 ng/mL; Concentration in water solution With Paeoniflorin [4]: 42000 ng/mL; Concentration in water solution With Rebaudioside A [4]: 67000 ng/mL; Concentration in water solution With Rubusoside [4]: 123000 ng/mL; Concentration in water solution With Stevioside ([4]; 10% w/v stevioside in water): 74000 ng/mL; Concentration in water solution With Astragaloside ([4]; nominal 10% w/v astragaloside IV in water (precipitated, less than 10%)): 5000 ng/mL; Concentration in water solution With Steviol monoside ([4]; nominal 10% w/v steviol monoside in water (precipitated, less than 10%)): 7000 ng/mL
5 | C=C1C[C@@]23CC[C@H]4[C@@](C)(CCC[C@@]4(C)C(=O)O[C@@H]4O[C@H](CO)[C@@H](O)[C@H](O)[C@H]4O)[C@@H]2CC[C@]1(O[C@@H]1O[C@H](CO)[C@@H](O)[C@H](O)[C@H]1O)C3 [Rubusoside, b-D-glucosyl ester of 13-O-b-D-glucosyl-steviol] | – | – | – | – | – | good solubility in water | No-observed-effect level ([5]; estimate based on 383 mg/kg body weight daily expressed as steviol): up to 766 mg rubusoside/kg body weight; Daily consumption that is safe and has no adverse effect ([5]; estimate based on the aglycone steviol): 8 mg rubusoside/kg body weight; solubility (physchem [6]; 25 °C): ~400000 µg/mL (≈ 622 mM); solubility (physchem [6]; 37 °C): ~800000 µg/mL (≈ 1240 mM)
6 | CCC(C)n1ncn(-c2ccc(N3CCN(c4ccc(OCC5COC(Cn6cncn6)(c6ccc(Cl)cc6Cl)O5)cc4)CC3)cc2)c1=O (centres unmarked) [itraconazole, reference compound] | – | – | – | – | – | practically insoluble in water | –
7 | C=C1C[C@@]23CC[C@H]4[C@@](C)(CCC[C@@]4(C)C(=O)O)[C@@H]2CC[C@]1(O)C3 [steviol] | – | – | – | – | – | – | No-observed-effect level expressed as steviol [7]: 383 mg/kg body weight daily
8 | C=C1C[C@@]23CC[C@H]4[C@@](C)(CCC[C@@]4(C)C(=O)O[C@@H]4O[C@H](CO)[C@@H](O)[C@H](O)[C@H]4O)[C@@H]2CC[C@]1(O[C@@H]1O[C@H](CO)[C@@H](O)[C@H](O)[C@H]1O[C@@H]1O[C@H](CO)[C@@H](O)[C@H](O)[C@H]1O)C3 [stevioside] | – | – | – | – | – | – | Adverse effects (hypertensive rats): no adverse effects
9 | OC[C@H]1O[C@@H]2O[C@H]3[C@H](O)[C@@H](O)[C@@H](O[C@H]4[C@H](O)[C@@H](O)[C@@H](O[C@H]5[C@H](O)[C@@H](O)[C@@H](O[C@H]6[C@H](O)[C@@H](O)[C@@H](O[C@H]7[C@H](O)[C@@H](O)[C@@H](O[C@H]1[C@H](O)[C@H]2O)O[C@@H]7CO)O[C@@H]6CO)O[C@@H]5CO)O[C@@H]4CO)O[C@@H]3CO [α-CD] | – | – | – | – | – | – | Solubility in water [8]: 15 g/100 mL

The next lines start with results.

Row | Concentration in water solution With Astragaloside [1] | Concentration in water solution With Geniposide [1] | Concentration in water solution With Mogroside V [1] | Concentration in water solution With Paeoniflorin [1] | Concentration in water solution With Rubusoside [1] | SMILES | Water solubility in words [3] | other results
10 | 0 ng/mL | 146000 ng/mL | 148000 ng/mL | 218000 ng/mL | 280000 ng/mL | C[C@@H]1CC[C@H]2[C@@H](C)C(=O)O[C@@H]3O[C@@]4(C)CC[C@@H]1[C@]32OO4 [Artemisinin, artemisinin, reference compound] | poorly soluble | solubility at 72 h (physchem [2]): 53 µg/mL (≈ 0.188 mM); Water solubility in words ([3]; listed as artemisinin): insoluble
11 | 0 ng/mL | 3000 ng/mL | 47000 ng/mL | 253000 ng/mL | 488000 ng/mL | Cc1ccc(-c2cc(C(F)(F)F)nn2-c2ccc(S(N)(=O)=O)cc2)cc1 [Celecoxib, celecoxib, reference compound] | poor solubility in water | Solubility in water without solubilizer [1]: 0^2 μg/mL; Water solubility in words ([3]; listed as celecoxib): water insoluble
12 | 400 ng/mL | 48000 ng/mL | 58000 ng/mL | 565000 ng/mL | 132000 ng/mL | CC(C)/N=c1\cc2n(-c3ccc(Cl)cc3)c3ccccc3nc-2cc1Nc1ccc(Cl)cc1 [Clofazimine, clofazimine, reference compound] | practically insoluble in water | Concentration in water solution With Rebaudioside A [1]: 109000 ng/mL; Concentration in water solution With Steviol monoside [1]: 0 ng/mL; Concentration in water solution With Stevioside [1]: 64000 ng/mL; solubility at 72 h (physchem [2]): 7.6 µg/mL (≈ 0.0161 mM)
13 | 0 ng/mL | 4000 ng/mL | 44000 ng/mL | 5000 ng/mL | 262000 ng/mL | COc1cc(/C=C/C(=O)CC(=O)/C=C/c2ccc(O)c(OC)c2)ccc1O [Curcumin, curcumin] | insoluble in water | Concentration in water solution With Steviol monoside [1]: 4000 ng/mL; Water solubility in words ([3]; listed as curcumin): insoluble
14 | – | 1000 ng/mL | 7000 ng/mL | 20000 ng/mL | 65000 ng/mL | CC(=O)O[C@H]1C(=O)[C@@]2(C)[C@H]([C@H](OC(=O)c3ccccc3)[C@]3(O)C[C@H](OC(=O)[C@H](O)[C@@H](NC(=O)c4ccccc4)c4ccccc4)C(C)=C1C3(C)C)[C@]1(OC(C)=O)CO[C@@H]1C[C@@H]2O [Paclitaxel, paclitaxel, reference compound] | not soluble in water | Concentration in water solution With Rebaudioside A [1]: 26000 ng/mL; Water solubility in words ([3]; listed as paclitaxel): insoluble
15 | 0 ng/mL | 16000 ng/mL | 18000 ng/mL | 37000 ng/mL | 150000 ng/mL | COc1cc(C2Oc3cc([C@H]4Oc5cc(O)cc(O)c5C(=O)[C@@H]4O)ccc3OC2CO)ccc1O (some centres unmarked) [Silybin, silybin] | – | Solubility in water without solubilizer [1]: 0^2 μg/mL
16 | 0 ng/mL | 100 ng/mL | 500 ng/mL | 23000 ng/mL | 127000 ng/mL | Cc1coc2c1C(=O)C(=O)c1c-2ccc2c1CCCC2(C)C [Tanshinone IIA, tanshinone IIA] | – | Solubility in water without solubilizer [1]: 0^2 μg/mL
